Test results: ChEMBL document CHEMBL4414607, “Protein Stability Effects in Aggregate-Based Enzyme Inhibition” (J Med Chem, 2019)

Tests used:
Bacteria [1] = assay: Binding affinity to bacterial Beta-lactamase TEM-1 G238S mutant assessed as change in melting temperature at 100-fold molar excess compound concentration relative to apo-enzymes by SYPRO Orange dye based differential scanning fluorimetry
[2] = target: Beta-lactamase TEM (Bacteria) (UniProt P62593); assay: Binding affinity to bacterial wild type Beta-lactamase TEM-1 assessed as change in melting temperature at 100-fold molar excess compound concentration relative to apo-enzymes by SYPRO Orange dye based differential scanning fluorimetry
Chain of Beta-lactamase TEM (Bacteria) (P62593 whole entry): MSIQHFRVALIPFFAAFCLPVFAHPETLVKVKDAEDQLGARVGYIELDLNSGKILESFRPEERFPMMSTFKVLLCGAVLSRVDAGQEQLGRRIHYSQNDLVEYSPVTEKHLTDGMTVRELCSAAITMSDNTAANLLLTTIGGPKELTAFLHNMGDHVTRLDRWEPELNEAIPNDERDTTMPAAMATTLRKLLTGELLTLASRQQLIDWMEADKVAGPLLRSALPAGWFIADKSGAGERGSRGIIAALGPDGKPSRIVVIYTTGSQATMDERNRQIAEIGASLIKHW

Bacteria [3] = assay: Binding affinity to bacterial Beta-lactamase TEM-1 M182T mutant assessed as change in melting temperature at 100-fold molar excess compound concentration relative to apo-enzymes by SYPRO Orange dye based differential scanning fluorimetry
Bacteria [4] = system: Bacteria
Bacteria [5] = assay: Binding affinity to bacterial Beta-lactamase TEM-1 M182T/G238S mutant assessed as change in melting temperature at 100-fold molar excess compound concentration relative to apo-enzymes by SYPRO Orange dye based differential scanning fluorimetry
Bacteria [6] = assay: Binding affinity to bacterial Beta-lactamase TEM-1 D179G mutant assessed as change in melting temperature at 100-fold molar excess compound concentration relative to apo-enzymes by SYPRO Orange dye based differential scanning fluorimetry

For `CO[C@@]1(NC(=O)[C@H](C(=O)O)c2ccc(O)cc2)C(=O)N2C(C(=O)O)=C(CSc3nnnn3C)CO[C@@H]21`, the ΔTm (Bacteria [1]) was -1.9 °C, the ΔTm [2] was -4.5 °C and the ΔTm (Bacteria [3]) was -4.1 °C. The ΔTm (Bacteria [4]) was -3.3 °C, the ΔTm (Bacteria [5]) was -0.7 °C and the ΔTm (Bacteria [6]) was 2.9 °C.
